These results are taken from patent US8614242B2, “1-(heterocyclic carbonyl)-2-substituted pyrrolidines” (Bayer Intellectual Property GmbH, priority 2010, dated 2013).

One data set concerns Septoria tritici. As to the kind of experiment: In vivo preventive test on Septoria tritici (wheat). Particulars: 500 ppm of active ingredient, evaluated 21 days after inoculation. The source says:
After the spray coating has been dried, the plants are sprayed with a spore suspension of Septoria tritici.

Data set [1] deals with Fusarium nivale (var. majus). As to the kind of experiment: In vivo preventive test on Fusarium nivale (wheat). Particulars: 500 ppm of active ingredient, evaluated 5 days after inoculation. The source says: After the spray coating has been dried, the plants are slightly injured by using a sandblast and afterwards they are sprayed with a conidia suspension of Fusarium nivale (var. majus).

Another data set concerns Puccinia triticina. The experiment in a line: In vivo preventive test on Puccinia triticina (wheat). Particulars: 500 ppm of active ingredient, evaluated 8 days after inoculation. The method, then:
In Vivo Preventive Test on Puccinia Triticina (Wheat)
Solvent: 49 parts by weight of N,N-dimethylacetamide
Emulsifier: 1 part by weight of alkylaryl polyglycol ether
After the spray coating has been dried, the plants are sprayed with a spore suspension of Puccinia triticina.
The test is evaluated 8 days after the inoculation.

Data set [2] can be described thus: logP by HPLC on reversed-phase column (EEC Directive 79/831 Annex V.A8). The data set is classed as physicochemical. Particulars: for logP: HPLC on reversed-phase column (C 18), 40° C., 0.1% aqueous formic acid and acetonitrile, linear gradient 10% to 90% acetonitrile. Here is the method: In table 1, the logP values were determined in accordance with EEC Directive 79/831 Annex V.A8 by HPLC (High Performance Liquid Chromatography) on a reversed-phase column (C 18), using the method described below: Temperature: 40° C.; Mobile phases: 0.1% aqueous formic acid and acetonitrile; linear gradient from 10% acetonitrile to 90% acetonitrile. Calibration was carried out using unbranched alkan-2-ones (comprising 3 to 16 carbon atoms) with known logP values (determination of the logP values by the retention times using linear interpolation between two successive alkanones). lambda-max-values were determined using UV-spectra from 200 nm to 400 nm and the peak values of the chromatographic signals.

In data set [3] the test system is Blumeria graminis f.sp. hordei. The experiment in a line: In vivo preventive test on Blumeria graminis (barley). Particulars: 500 ppm of active ingredient, evaluated 7 days after inoculation. The source says: After the spray coating has been dried, the plants are dusted with spores of Blumeria graminis f.sp. hordei.
A further data set concerns Venturia inaequalis. As to the kind of experiment: In vivo preventive test on Venturia inaequalis (apple scab). Particulars: 100 ppm of active ingredient, evaluated 10 days after inoculation. The method, then: After the spray coating has dried on, the plants are inoculated with an aqueous conidia suspension of the causal agent of apple scab (Venturia inaequalis) and then remain for 1 day in an incubation cabinet at approximately 20° C. and a relative atmospheric humidity of 100%.

The test system of the next data set is Alternaria solani. As to the kind of experiment: In vivo preventive test on Alternaria solani (tomato). Particulars: 500 ppm of active ingredient, evaluated 7 days after inoculation. The method, then: The plants remain for one day in an incubation cabinet at approximately 22° C. and a relative atmospheric humidity of 100%. Then the plants are placed in an incubation cabinet at approximately 20° C. and a relative atmospheric humidity of 96%.

The next data set deals with Pyrenophora teres. The experiment in a line: In vivo preventive test on Pyrenophora teres (barley). Particulars: 500 ppm of active ingredient, evaluated 7-9 days after inoculation. Here is the method: The plants remain for 48 hours in an incubation cabinet at 22° C. and a relative atmospheric humidity of 100%.
The next data set relates to Leptosphaeria nodorum. The experiment in a line: In vivo preventive test on Leptosphaeria nodorum (wheat). Particulars: 500 ppm of active ingredient, evaluated 8 days after inoculation. The source says:
After the spray coating has been dried, the plants are sprayed with a spore suspension of Leptosphaeria nodorum.

The next data set concerns Sphaerotheca fuliginea. As to the kind of experiment: In vivo preventive test on Sphaerotheca fuliginea (cucumber). Particulars: 500 ppm of active ingredient, evaluated 7 days after inoculation.
The test system of a further data set is Pyricularia oryzae. The data set is classed as in vivo. Particulars: rice, protective, 250 ppm of active ingredient, evaluated 5 days after inoculation.
In a further data set the test system is Cochliobolus miyabeanus. Particulars: rice, protective, 250 ppm of active ingredient, evaluated 4 days after inoculation.
The subject of the next data set is Rhizoctonia solani. As to the kind of experiment: In vivo protective test on Rhizoctonia solani (rice). Particulars: 250 ppm of active ingredient, evaluated 4 days after inoculation. The text has this:
In Vivo Protective Test on Rhizoctonia Solani (Rice)

Another data set relates to Phakopsora pachyrhizi. The experiment in a line: In vivo protective test on Phakopsora pachyrhizi (soybeans). Particulars: 250 ppm of active ingredient, evaluated 11 days after inoculation. Here is the method: In Vivo Protective Test on Phakopsora Pachyrhizi (Soybeans)
The test is evaluated 11 days after the inoculation.

Experimental for Cochliobolus miyabeanus: In Vivo Protective Test on Cochliobolus Miyabeanus (Rice)
Solvent: 28.5 parts by weight of acetone
Emulsifier: 1.5 part by weight of polyoxyethylene alkyl phenyl ether
One day after spraying, the plants are inoculated with an aqueous spore suspension of the causal agent of rice brown spot (Cochliobolus miyabeanus). The plants are then placed in an incubator at approximately 25° C. and a relative atmospheric humidity of approximately 100% for 1 day.
The test is evaluated 4 days after the inoculation.

By logP is commonly meant the decadic logarithm of the partition coefficient of the neutral form, usually between octanol and water. Higher therefore signals higher lipophilicity. Consider `Cn1nc(C(F)F)c(C(=O)N2CCCC2Cc2cccc(F)c2)c1F` (stereo not shown) [Example 58], for which the Efficacy came to 100% in the data set with Septoria tritici; 100% in [1]; 100% with Puccinia triticina; 100% in data set [3]; 99% in the data set on Venturia inaequalis; 89% in the data set on Alternaria solani. For the same compound, the Efficacy is 100% in the data set on Pyrenophora teres, 100% with Leptosphaeria nodorum and 96% in the data set with Sphaerotheca fuliginea. In [2], the logP is 2.90.

Usually chromatographic logP stands for a lipophilicity value derived from retention on a column. High values mean higher lipophilicity, low ones lower lipophilicity. As for `Cc1cccc(CC2CCCN2C(=O)c2c(C(F)F)nn(C)c2F)c1` (stereo not shown) [Example 55, [3-(difluoromethyl)-5-fluoro-1-methyl-1H-pyrazol-4-yl][2-(3-methyl-benzyl)pyrrolidin-1-yl]methanone], the Efficacy (with Septoria tritici; in data set [1]; in the data set on Puccinia triticina; in [3]; in the data set with Venturia inaequalis; with Pyrenophora teres) was 100% each time. The Efficacy in the data set on Leptosphaeria nodorum was 100%; in the data set on Sphaerotheca fuliginea, 95%. Also, in [2], the chromatographic logP turned out to be 3.21.

On to `Cc1ccc(CC2CCCN2C(=O)c2c(C(F)F)nn(C)c2F)cc1` (stereo not shown) [Example 56], for which the Efficacy in the data set with Septoria tritici came out at 100%; in data set [1], 100%; in the data set on Puccinia triticina it was 89%; in data set [3] it was 100%; in the data set with Venturia inaequalis, 98%; with Alternaria solani, 94%. The Efficacy in the data set on Pyrenophora teres stood at 100%; in the data set with Leptosphaeria nodorum, 93%; in the data set on Sphaerotheca fuliginea, 81%. Besides, the logP in data set [2] is 3.23.

In the case of `Cc1cc(C)c(CC2CCCN2C(=O)c2c(C(F)F)nn(C)c2F)cc1C` (racemic) [Example 66], the Efficacy is on record as 90% with Septoria tritici; 100% in data set [1]; 100% with Puccinia triticina; 100% in the data set with Venturia inaequalis; 97% in the data set on Pyricularia oryzae; 98% in the data set with Cochliobolus miyabeanus. Further, the Efficacy with Alternaria solani is recorded as 100%; in the data set on Rhizoctonia solani, 80%; in the data set with Pyrenophora teres, 100%; in the data set with Sphaerotheca fuliginea, 88%. Also, the logP in [2] stood at 3.81.

In the case of `Cn1nc(C(F)F)c(C(=O)N2CCCC2c2cccc(C(F)(F)F)c2)c1F` (stereo not shown) [Example 17], the logP in data set [2] was 3.06. Further, the Efficacy with Pyricularia oryzae is 92%; with Cochliobolus miyabeanus, 98%; in the data set on Alternaria solani it was 100%; in the data set with Pyrenophora teres it was 100%; in the data set on Sphaerotheca fuliginea it was 95%.

For the compound `CCC(c1ccccc1)C1CCCN1C(=O)c1c(C(F)F)nn(C)c1F` (stereo not shown) [Example 53], the Efficacy with Septoria tritici came to 100%; in [1], 100%; in the data set with Puccinia triticina, 88%; in [3], 100%; with Venturia inaequalis, 100%; with Cochliobolus miyabeanus, 95%. Further, the Efficacy came to 94% with Alternaria solani, 100% with Pyrenophora teres, 100% with Leptosphaeria nodorum and 93% in the data set with Sphaerotheca fuliginea. The same compound showed a logP in data set [2] of 3.48. Besides, the “protection (efficacy)” value in the data set with Phakopsora pachyrhizi is given as 85%.

For `Cn1nc(C(F)F)c(C(=O)N2CCCC2Cc2ccccc2F)c1F` (stereo not shown) [Example 57], the Efficacy with Septoria tritici amounted to 100%; in data set [1] it was 100%; in the data set on Puccinia triticina, 100%; in data set [3], 100%; in the data set with Venturia inaequalis it was 100%; with Alternaria solani, 94%. Also, the Efficacy in the data set with Pyrenophora teres stood at 100%; with Leptosphaeria nodorum it was 100%; in the data set on Sphaerotheca fuliginea, 94%. Besides, the logP in data set [2] turned out to be 2.86.

On to `Cn1nc(C(F)F)c(C(=O)N2CCC[C@H]2COc2c(Cl)cc(Cl)cc2Cl)c1F` [Example 82], for which the Efficacy in the data set with Septoria tritici is on record as 86%; in data set [1], 100%; in the data set on Puccinia triticina, 100%; in [3] it was 100%; with Pyricularia oryzae it was 98%; with Cochliobolus miyabeanus, 93%. In addition, the Efficacy in the data set with Rhizoctonia solani and in the data set with Sphaerotheca fuliginea was 100% each time. In data set [2], this compound returned a logP of 4.24.

As for `Cn1nc(C(F)F)c(C(=O)N2CCCC2Cc2cccc(Cl)c2)c1F` (racemic) [Example 64], the Efficacy (in the data set on Septoria tritici; in [1]; in the data set on Puccinia triticina; in [3]; in the data set with Venturia inaequalis; in the data set on Pyrenophora teres) was 100% throughout. Besides, the Efficacy with Leptosphaeria nodorum and in the data set on Sphaerotheca fuliginea was 93% in each case. In [2], this compound returned a log partition coefficient (logP) of 3.25.

Regarding `Cn1nc(C(F)F)c(C(=O)N2CCCC2Cc2ccccc2)c1F` (stereo not shown) [Example 52], the Efficacy is reported as 100% in the data set with Septoria tritici; 100% in data set [1]; 89% with Puccinia triticina; 100% in data set [3]; 100% in the data set on Venturia inaequalis; 100% in the data set on Alternaria solani. For the same compound, the Efficacy in the data set on Pyrenophora teres and with Leptosphaeria nodorum was 100% each time. In data set [2], this compound showed a logP of 2.84.

On to `Cc1ccccc1CC1CCCN1C(=O)c1c(C(F)F)nn(C)c1F` (stereo not shown) [Example 54], for which the Efficacy with Septoria tritici was 100%; in [1], 100%; with Puccinia triticina, 100%; in [3], 100%; with Venturia inaequalis it was 100%; in the data set on Alternaria solani, 94%. Also, the Efficacy is recorded as 95% in the data set with Pyrenophora teres, 100% in the data set on Leptosphaeria nodorum and 95% in the data set with Sphaerotheca fuliginea. The logP in [2] turned out to be 3.13.

Turning to `Cn1nc(C(F)F)c(C(=O)N2CCCC2Cc2c(F)cccc2Cl)c1F` (racemic) [Example 67], the Efficacy with Septoria tritici is given as 100%; in [1], 100%; in the data set on Puccinia triticina, 94%; in [3], 100%; in the data set on Venturia inaequalis it was 100%; in the data set with Alternaria solani it was 100%. Further, the Efficacy with Pyrenophora teres was 100%; in the data set with Leptosphaeria nodorum, 100%; with Sphaerotheca fuliginea it was 95%. Further, the logP in data set [2] was 3.15.
